Reference: patent US9371363B2, “Peptides and their use” (Novabiotics Limited, priority 2007, dated 2016)
Where two headings read alike, the source gives them in different places. Where no end group is shown, it is not given here.

Key:
Assay type in all cases: cell-based
S. aureus = tested on: S. aureus
Description: (§1) Broth Dilution Antibacterial Susceptibility Testing
(§2) The sensitivity of relevant bacterial strains to the peptides (was determined using Clinical Laboratory Standard Institute (CLSI; formerly NCCLS) Approved Standards. Bacterial susceptibility was tested using “Methods for Dilution Antimicrobial Susceptibility Tests for Bacteria That Grow […]; Approved Standard—Seventh Edition M7-A7”

P. acnes = tested on: P. acnes
Description: as §1, §2

Ps. aeruginosa = tested on: Ps. aeruginosa
Description: as §1, §2

[1] = S. aureus, values marked * in mg/ml
[2] = Ps. aeruginosa, values marked * in mg/ml
[3] = P. acnes, values marked * in mg/ml
[4] = Ps. aeruginosa, CLSI broth dilution

Compound	Minimum Inhibitory Concentration, antimicrobial activity, S. aureus (S. aureus) [mM]	other results
RRVVRR [NP305, RRVVRR (SEQ ID NO: 5)]	>2	
N=C(N)NCCC[C@H](NC(=O)[C@H](CCCNC(=N)N)NC(=O)[C@H](CCCNC(=N)N)NC(=O)[C@H](CCCNC(=N)N)NC(=O)[C@H](CCCNC(=N)N)NC(=O)[C@H](CCCNC(=N)N)NC(=O)[C@H](CCCNC(=N)N)NC(=O)[C@H](CCCNC(=N)N)NC(=O)[C@@H](N)CCCNC(=N)N)C(=O)O [NP316, RRRRRRRRR (SEQ ID NO: 12)]		Minimum Inhibitory Concentration, antimicrobial activity, P. acnes (P. acnes; P. acnes, CLSI broth dilution): 0.0313 mM
(R)n, n = 28-86 [NP121]		Minimum Inhibitory Concentration, antimicrobial activity, S. aureus (S. aureus; [1]): 0.0313* mg/ml; Minimum Inhibitory Concentration, antimicrobial activity, Ps. aeruginosa (Ps. aeruginosa; [2]): 0.0625* mg/ml; Minimum Inhibitory Concentration, antimicrobial activity, P. acnes (P. acnes; [3]): 0.01* mg/ml
RRWRWRR [NP326, RRWRWRR (SEQ ID NO: 22)]	>2	
RRWRR [NP322, RRWRR (SEQ ID NO: 18)]	>2	
KVRQGTLKKAR [NP335, KVRQGTLKKAR (SEQ ID NO: 29)]	>2	
RRWRWR [NP323, RRWRWR (SEQ ID NO: 19)]	>2	
RRVRVR [NP304, RRVRVR (SEQ ID NO: 4)]	>2	
N=C(N)NCCC[C@H](NC(=O)[C@H](CCCNC(=N)N)NC(=O)[C@H](CCCNC(=N)N)NC(=O)[C@H](CCCNC(=N)N)NC(=O)[C@H](CCCNC(=N)N)NC(=O)[C@H](CCCNC(=N)N)NC(=O)[C@H](CCCNC(=N)N)NC(=O)[C@H](CCCNC(=N)N)NC(=O)[C@H](CCCNC(=N)N)NC(=O)[C@H](CCCNC(=N)N)NC(=O)[C@@H](N)CCCNC(=N)N)C(=O)O [NP350, RRRRRRRRRRR (SEQ ID NO: 13)]		Minimum Inhibitory Concentration, antimicrobial activity, Ps. aeruginosa (Ps. aeruginosa): 0.125 mM
KLTKPKPQAESKKKKK [NP332]	>2	
RRWWR [NP321, RRWWR (SEQ ID NO: 17)]	>2	
CC(=O)N[C@@H](CCCNC(=N)N)C(=O)N[C@@H](CCCNC(=N)N)C(=O)N[C@@H](CCCNC(=N)N)C(=O)N[C@@H](CCCNC(=N)N)C(=O)N[C@@H](CCCNC(=N)N)C(=O)N[C@@H](CCCNC(=N)N)C(=O)N[C@@H](CCCNC(=N)N)C(=O)N[C@@H](CCCNC(=N)N)C(=O)N[C@@H](CCCNC(=N)N)C(=O)N[C@@H](CCCNC(=N)N)C(=O)N[C@@H](CCCNC(=N)N)C(=O)N[C@@H](CCCNC(=N)N)C(=O)N[C@@H](CCCNC(=N)N)C(N)=O [NP338]		Minimum Inhibitory Concentration, antimicrobial activity, Ps. aeruginosa (Ps. aeruginosa; [4]): 0.0625 mM; Minimum Inhibitory Concentration, antimicrobial activity, P. acnes (P. acnes): 0.005 mM
KKKKKKKKKKKKKKK [NP348]		Minimum Inhibitory Concentration, antimicrobial activity, S. aureus (S. aureus; S. aureus, CLSI broth dilution): 0.25 mM; Minimum Inhibitory Concentration, antimicrobial activity, P. acnes (P. acnes; P. acnes, CLSI broth dilution): 0.0625 mM
RRRVRRR [NP306, RRRVRRR (SEQ ID NO: 6)]	>2	
KKKKKKKKK [NP345, KKKKKKKKK (SEQ ID NO: 33)]		Minimum Inhibitory Concentration, antimicrobial activity, P. acnes (P. acnes): 2.5 mM
RRVRRVRR [NP309, RRVRRVRR (SEQ ID NO: 9)]		Minimum Inhibitory Concentration, antimicrobial activity, P. acnes (P. acnes): 1 mM
RRVRR [NP303, RRVRR (SEQ ID NO: 3)]	>2	
RRVVR [NP302, RRVVR (SEQ ID NO: 2)]	>2	
KKKDKVKK [NP334, KKKDKVKK (SEQ ID NO: 28)]	>2	
(R)n, n = >402 [NP123]		Minimum Inhibitory Concentration, antimicrobial activity, P. acnes (P. acnes; [3]): 0.01* mg/ml
PKTKAKAKAKKGKGKD [NP336]	>2	
N=C(N)NCCC[C@H](NC(=O)[C@H](CCCNC(=N)N)NC(=O)[C@H](CCCNC(=N)N)NC(=O)[C@H](CCCNC(=N)N)NC(=O)[C@H](CCCNC(=N)N)NC(=O)[C@H](CCCNC(=N)N)NC(=O)[C@H](CCCNC(=N)N)NC(=O)[C@H](CCCNC(=N)N)NC(=O)[C@H](CCCNC(=N)N)NC(=O)[C@H](CCCNC(=N)N)NC(=O)[C@H](CCCNC(=N)N)NC(=O)[C@H](CCCNC(=N)N)NC(=O)[C@@H](N)CCCNC(=N)N)C(=O)O [NP318, RRRRRRRRRRRRR (SEQ ID NO: 14)]	0.125	Minimum Inhibitory Concentration, antimicrobial activity, P. acnes (P. acnes): <0.0156 mM

Compound	Minimum Inhibitory Concentration, antimicrobial activity, S. aureus (S. aureus) [mM]	other results
(K)n, n = 103-205 [NP101]		Minimum Inhibitory Concentration, antimicrobial activity, S. aureus (S. aureus; [1]): <0.0313* mg/ml; Minimum Inhibitory Concentration, antimicrobial activity, Ps. aeruginosa (Ps. aeruginosa; [2]): 0.125* mg/ml; Minimum Inhibitory Concentration, antimicrobial activity, P. acnes (P. acnes; [3]): 0.1* mg/ml
RWRWR [NP320, RWRWR (SEQ ID NO: 16)]	>2	
(K)n, n = 3-14 [NP112]		Minimum Inhibitory Concentration, antimicrobial activity, P. acnes (P. acnes; [3]): 0.1* mg/ml
N=C(N)NCCC[C@H](NC(=O)[C@H](CCCNC(=N)N)NC(=O)[C@H](CCCNC(=N)N)NC(=O)[C@H](CCCNC(=N)N)NC(=O)[C@H](CCCNC(=N)N)NC(=O)[C@H](CCCNC(=N)N)NC(=O)[C@H](CCCNC(=N)N)NC(=O)[C@H](CCCNC(=N)N)NC(=O)[C@H](CCCNC(=N)N)NC(=O)[C@H](CCCNC(=N)N)NC(=O)[C@H](CCCNC(=N)N)NC(=O)[C@H](CCCNC(=N)N)NC(=O)[C@@H](N)CCCNC(=N)N)C(=O)O [NP351, RRRRRRRRRRRRR (SEQ ID NO: 14)]		Minimum Inhibitory Concentration, antimicrobial activity, Ps. aeruginosa (Ps. aeruginosa; [4]): 0.125 mM
RVRVR [NP301, RVRVR (SEQ ID NO: 1)]	>2	
N=C(N)NCCC[C@@H](N)C(=O)N[C@H](CCCNC(=N)N)C(=O)N[C@H](CCCNC(=N)N)C(=O)N[C@H](CCCNC(=N)N)C(=O)N[C@H](CCCNC(=N)N)C(=O)N[C@H](CCCNC(=N)N)C(=O)N[C@H](CCCNC(=N)N)C(=O)N[C@H](CCCNC(=N)N)C(=O)N[C@H](CCCNC(=N)N)C(=O)N[C@H](CCCNC(=N)N)C(=O)N[C@H](CCCNC(=N)N)C(=O)N[C@H](CCCNC(=N)N)C(=O)N[C@H](CCCNC(=N)N)C(N)=O [NP341, dRdRdRdRdRdRdRdRdRdRdRdRdR—CONH (SEQ ID NO: 31)]	0.125	
N=C(N)NCCC[C@H](NC(=O)[C@H](CCCNC(=N)N)NC(=O)[C@H](CCCNC(=N)N)NC(=O)[C@H](CCCNC(=N)N)NC(=O)[C@H](CCCNC(=N)N)NC(=O)[C@H](CCCNC(=N)N)NC(=O)[C@H](CCCNC(=N)N)NC(=O)[C@H](CCCNC(=N)N)NC(=O)[C@H](CCCNC(=N)N)NC(=O)[C@H](CCCNC(=N)N)NC(=O)[C@@H](N)CCCNC(=N)N)C(=O)O [NP317, RRRRRRRRRRR (SEQ ID NO: 13)]	0.25	
RRWWRR [NP324, RRWWRR (SEQ ID NO: 20)]	1	
(K)n, n = 7-34 [NP106]		Minimum Inhibitory Concentration, antimicrobial activity, P. acnes (P. acnes; [3]): 0.125* mg/ml
KKKKKEGKKQEKMLD [NP333]	>2	
RRRWRRR [NP325, RRRWRRR (SEQ ID NO: 21)]	>2	
RRVVRRVVRR [NP311, RRVVRRVVRR (SEQ ID NO: 11)]	>2	Minimum Inhibitory Concentration, antimicrobial activity, P. acnes (P. acnes): 2 mM
N=C(N)NCCC[C@@H](N)C(=O)N[C@H](CCCNC(=N)N)C(=O)N[C@H](CCCNC(=N)N)C(=O)N[C@H](CCCNC(=N)N)C(=O)N[C@H](CCCNC(=N)N)C(=O)N[C@H](CCCNC(=N)N)C(=O)N[C@H](CCCNC(=N)N)C(=O)N[C@H](CCCNC(=N)N)C(=O)N[C@H](CCCNC(=N)N)C(=O)N[C@H](CCCNC(=N)N)C(=O)N[C@H](CCCNC(=N)N)C(=O)N[C@H](CCCNC(=N)N)C(=O)N[C@H](CCCNC(=N)N)C(=O)O [NP339, dRdRdRdRdRdRdRdRdRdRdRdRdR (SEQ ID NO: 31)]	0.25	Minimum Inhibitory Concentration, antimicrobial activity, Ps. aeruginosa (Ps. aeruginosa; [4]): 0.0625 mM; Minimum Inhibitory Concentration, antimicrobial activity, P. acnes (P. acnes): 0.02 mM
(H)n, n = 32-161 [NP131]		Minimum Inhibitory Concentration, antimicrobial activity, S. aureus (S. aureus; [1]): >2* mg/ml; Minimum Inhibitory Concentration, antimicrobial activity, P. acnes (P. acnes; [3]): >0.1* mg/ml
GKKEKPEKKVKK [NP331, GKKEKPEKKVKK (SEQ ID NO: 25)]	>2	
N=C(N)NCCC[C@H](NC(=O)[C@H](CCCNC(=N)N)NC(=O)[C@H](CCCNC(=N)N)NC(=O)[C@H](CCCNC(=N)N)NC(=O)[C@H](CCCNC(=N)N)NC(=O)[C@H](CCCNC(=N)N)NC(=O)[C@H](CCCNC(=N)N)NC(=O)[C@H](CCCNC(=N)N)NC(=O)[C@H](CCCNC(=N)N)NC(=O)[C@H](CCCNC(=N)N)NC(=O)[C@H](CCCNC(=N)N)NC(=O)[C@H](CCCNC(=N)N)NC(=O)[C@@H](N)CCCNC(=N)N)C(=O)O [NP337, RRRRRRRRRRRRR (SEQ ID NO: 31)]		Minimum Inhibitory Concentration, antimicrobial activity, P. acnes (P. acnes): 0.0025 mM
(R)n, n = 86-402 [NP122]		Minimum Inhibitory Concentration, antimicrobial activity, P. acnes (P. acnes; [3]): 0.01* mg/ml
RRRVVRRR [NP308, RRRVVRRR (SEQ ID NO: 8)]	>2	
RRWRRWRR [NP328, RRWRRWRR (SEQ ID NO: 24)]	>2	
RRRRVVRRRR [NP310, RRRRVVRRRR (SEQ ID NO: 10)]	>2	Minimum Inhibitory Concentration, antimicrobial activity, P. acnes (P. acnes): 0.5 mM
RRVRVRR [NP307, RRVRVRR (SEQ ID NO: 7)]	>2	
(H)n, n = >32 [NP132]		Minimum Inhibitory Concentration, antimicrobial activity, P. acnes (P. acnes; [3]): 0.1* mg/ml
